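GI50 is the concentration that inhibits growth by half. TGI is the concentration that stops growth completely.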
What was measured:
Assay in all cases: DTP human tumour cell line panel, 384-well format
NCI/ADR-RES ovarian = test system: NCI/ADR-RES ovarian
UACC-62 melanoma = test system: UACC-62 melanoma
SN12C renal = test system: SN12C renal
UO-31 renal = test system: UO-31 renal
T-47D breast = test system: T-47D breast
A498 renal = test system: A498 renal
MDA-MB-468 breast = test system: MDA-MB-468 breast
NCI-H322M lung = test system: NCI-H322M lung
RXF 393 renal = test system: RXF 393 renal
HL-60(TB) leukemia = test system: HL-60(TB) leukemia
HCC-2998 colon = test system: HCC-2998 colon
OVCAR-5 ovarian = test system: OVCAR-5 ovarian
MDA-MB-231 breast = test system: MDA-MB-231 breast
UACC-257 melanoma = test system: UACC-257 melanoma
MOLT-4 leukemia = test system: MOLT-4 leukemia
MCF7 breast = test system: MCF7 breast
IGROV1 ovarian = test system: IGROV1 ovarian
NCI-H23 lung = test system: NCI-H23 lung
KM12 colon = test system: KM12 colon
SR leukemia = test system: SR leukemia
HT29 colon = test system: HT29 colon
MALME-3M melanoma = test system: MALME-3M melanoma
U251 glioblastoma = test system: U251 glioblastoma
SF-539 CNS = test system: SF-539 CNS
OVCAR-3 ovarian = test system: OVCAR-3 ovarian
HCT-15 colon = test system: HCT-15 colon
SK-OV-3 ovarian = test system: SK-OV-3 ovarian
COLO 205 colon = test system: COLO 205 colon
OVCAR-4 ovarian = test system: OVCAR-4 ovarian
NCI-H522 lung = test system: NCI-H522 lung
786-0 renal = test system: 786-0 renal
CAKI-1 renal = test system: CAKI-1 renal
SK-MEL-5 melanoma = test system: SK-MEL-5 melanoma
MDA-MB-435 melanoma = test system: MDA-MB-435 melanoma
SNB-19 CNS = test system: SNB-19 CNS
CCRF-CEM leukemia = test system: CCRF-CEM leukemia
HOP-62 NSCLC = test system: HOP-62 NSCLC
ACHN renal = test system: ACHN renal
EKVX NSCLC = test system: EKVX NSCLC
RPMI-8226 leukemia = test system: RPMI-8226 leukemia
BT-549 breast = test system: BT-549 breast
NCI-H460 NSCLC = test system: NCI-H460 NSCLC
SF-295 CNS = test system: SF-295 CNS
NCI-H226 lung = test system: NCI-H226 lung
TK-10 renal = test system: TK-10 renal
SW-620 colon = test system: SW-620 colon
HOP-92 NSCLC = test system: HOP-92 NSCLC
SNB-75 CNS = test system: SNB-75 CNS
HCT-116 colon = test system: HCT-116 colon
SK-MEL-28 melanoma = test system: SK-MEL-28 melanoma
A549 NSCLC = test system: A549 NSCLC
SF-268 CNS = test system: SF-268 CNS
OVCAR-8 ovarian = test system: OVCAR-8 ovarian
PC-3 prostate = test system: PC-3 prostate
K-562 leukemia = test system: K-562 leukemia
DU-145 prostate = test system: DU-145 prostate

Structure (SMILES): O=C(Cc1cccc(OC(F)(F)F)c1)Nc1ccc(CCCCc2nnc(NC(=O)Cc3ccccn3)s2)nn1
- GI50 (NCI/ADR-RES ovarian): > 100 µM
- TGI (NCI/ADR-RES ovarian): > 100 µM
- GI50 (UACC-62 melanoma): 4.76 µM
- TGI (UACC-62 melanoma): > 33.5 µM
- GI50 (SN12C renal): 0.0217 µM
- GI50 (UO-31 renal): 5.66 µM
- GI50 (T-47D breast): 1.87 µM
- TGI (T-47D breast): 9.66 µM
- GI50 (A498 renal): 0.0303 µM
- TGI (A498 renal): 0.16 µM
- GI50 (MDA-MB-468 breast): 8.47 µM
- TGI (MDA-MB-468 breast): 93.3 µM
- GI50 (NCI-H322M lung): 0.0199 µM
- TGI (NCI-H322M lung): 0.0551 µM
- GI50 (RXF 393 renal): 0.0372 µM
- TGI (RXF 393 renal): 0.141 µM
- GI50 (HL-60(TB) leukemia): 0.687 µM
- TGI (HL-60(TB) leukemia): > 100 µM
- TGI (HCC-2998 colon): > 100 µM
- GI50 (OVCAR-5 ovarian): 0.362 µM
- TGI (OVCAR-5 ovarian): > 100 µM
- GI50 (MDA-MB-231 breast): 0.0339 µM
- TGI (MDA-MB-231 breast): 18.8 µM
- GI50 (UACC-257 melanoma): 14.4 µM
- TGI (UACC-257 melanoma): 48 µM
- GI50 (MOLT-4 leukemia): 2.04 µM
- TGI (MOLT-4 leukemia): > 100 µM
- GI50 (MCF7 breast): 6.1 µM
- TGI (MCF7 breast): > 100 µM
- GI50 (IGROV1 ovarian): > 31.6 µM
- TGI (IGROV1 ovarian): > 31.6 µM
- GI50 (NCI-H23 lung): 4.78 µM
- TGI (NCI-H23 lung): 39.6 µM
- GI50 (KM12 colon): 0.068 µM
- TGI (KM12 colon): > 100 µM
- GI50 (SR leukemia): 0.439 µM
- TGI (SR leukemia): 18.7 µM
- GI50 (HT29 colon): > 100 µM
- TGI (HT29 colon): > 100 µM
- GI50 (MALME-3M melanoma): 23.1 µM
- TGI (MALME-3M melanoma): > 56.7 µM
- GI50 (U251 glioblastoma): 0.0338 µM
- TGI (U251 glioblastoma): 11.8 µM
- GI50 (SF-539 CNS): 0.224 µM
- TGI (SF-539 CNS): 14.4 µM
- GI50 (OVCAR-3 ovarian): > 21.4 µM
- TGI (OVCAR-3 ovarian): > 100 µM
- GI50 (HCT-15 colon): > 72.6 µM
- TGI (HCT-15 colon): > 100 µM
- GI50 (SK-OV-3 ovarian): 0.0809 µM
- TGI (SK-OV-3 ovarian): 25.2 µM
- GI50 (COLO 205 colon): 36.2 µM
- TGI (COLO 205 colon): > 100 µM
- GI50 (OVCAR-4 ovarian): 9.65 µM
- TGI (OVCAR-4 ovarian): > 31.1 µM
- GI50 (NCI-H522 lung): 0.075 µM
- TGI (NCI-H522 lung): 4.05 µM
- GI50 ([…]-0 renal): 0.0294 µM
- TGI (786-0 renal): 0.248 µM
- GI50 (CAKI-1 renal): 0.193 µM
- TGI (CAKI-1 renal): 18 µM
- GI50 (SK-MEL-5 melanoma): 0.891 µM
- TGI (SK-MEL-5 melanoma): 17.2 µM
- GI50 (MDA-MB-435 melanoma): > 100 µM
- TGI (MDA-MB-435 melanoma): > 100 µM
- GI50 (SNB-19 CNS): 39.4 µM
- TGI (SNB-19 CNS): 97.2 µM
- GI50 (CCRF-CEM leukemia): 0.375 µM
- TGI (CCRF-CEM leukemia): > 100 µM
- GI50 (HOP-62 NSCLC): 0.0537 µM
- TGI (HOP-62 NSCLC): 0.335 µM
- GI50 (ACHN renal): 2.52 µM
- TGI (ACHN renal): > 71 µM
- GI50 (EKVX NSCLC): 2.74 µM
- TGI (EKVX NSCLC): > 100 µM
- GI50 (RPMI-8226 leukemia): 0.0377 µM
- TGI (RPMI-8226 leukemia): 0.175 µM
- GI50 (BT-549 breast): 2.26 µM
- TGI (BT-549 breast): 11.2 µM
- GI50 (NCI-H460 NSCLC): 0.165 µM
- TGI (NCI-H460 NSCLC): 19.2 µM
- GI50 (SF-295 CNS): 5.17 µM
- TGI (SF-295 CNS): > 23.1 µM
- GI50 (NCI-H226 lung): 0.282 µM
- TGI (NCI-H226 lung): 0.983 µM
- GI50 (TK-10 renal): 0.637 µM
- TGI (TK-10 renal): 18.3 µM
- GI50 (SW-620 colon): > 100 µM
- TGI (SW-620 colon): > 100 µM
- GI50 (HOP-92 NSCLC): 6.95 µM
- TGI (HOP-92 NSCLC): 32.4 µM
- GI50 (SNB-75 CNS): 18.5 µM
- TGI (SNB-75 CNS): 55.9 µM
- GI50 (HCT-116 colon): 0.162 µM
- TGI (HCT-116 colon): > 33.4 µM
- GI50 (SK-MEL-28 melanoma): 30.8 µM
- TGI (SK-MEL-28 melanoma): > 87.1 µM
- GI50 (A549 NSCLC): 0.0172 µM
- TGI (A549 NSCLC): 0.061 µM
- GI50 (SF-268 CNS): 0.201 µM
- TGI (SF-268 CNS): 1.98 µM
- GI50 (OVCAR-8 ovarian): 1.22 µM
- TGI (OVCAR-8 ovarian): 17.3 µM
- GI50 (PC-3 prostate): > 100 µM
- TGI (PC-3 prostate): > 100 µM
- GI50 (K-562 leukemia): 8.95 µM
- TGI (K-562 leukemia): > 100 µM
- GI50 (DU-145 prostate): 31.4 µM
- TGI (DU-145 prostate): > 100 µM
